Measurements as given in patent publication US20260103479A1, “PRODRUGS OF OPICAPONE” (BIAL- PORTELA & CA, S.A., priority 2022, published 2026).
Where two headings read alike, the source gives them in different places.

Experiments:
[1] = Oral pharmacokinetics in rats; type: in vivo, male Wistar rats; details: p.o. 3 mg/kg; for Cmax / Tmax / AUC(0-t): male, Wistar, po, rat plasma, analyte prodrug; for AUC(0-t): read-out: AUClast of prodrug; for opicapone pharmacokinetic profile after oral prodrug (comparison): FIG. 3b
Procedure: The pharmacokinetic properties of compounds 1 and 4 compared to micronized crystalline opicapone were assessed by oral administrations to 4 male Wistar rats (3 mg/kg; 0.2% HPMC).
(§1) During the studies, blood was collected at different time points, from tail vein, spun at 1500×g in a refrigerated centrifuge (4° C.) for 15 min, and the plasma obtained was stored at −80° C. until further analysis. The plasma samples collected were analysed for compound 1, compound 4 and opicapone exposure. The bioanalysis involved the use of LC-MS/MS after plasma precipitation.

[2] = In vitro stability in human plasma; type: in vitro ADME; details: 1 μM; after 0.75 h
Procedure: (§2) The stability of 1 μM of compound 1 was assessed in the following fractions: phosphate buffer, human plasma, rat plasma, human liver S9 fraction, rat liver S9 fraction and rat liver homogenates.
(§3) Reaction was initiated by adding of 1 μM of test compound to the desired matrix (plasma, liver homogenate at 0.4 g/mL or S9 fraction at 1 mg/mL, respectively), with a final volume of 350 μL. At the following time points 0, 5, 15, 30, 45, 60 min, 50 μL of sample is taken and precipitated with 200 μL of acetonitrile 1% formic acid containing the internal standard (opicapone ^13C6) at 1 μM. Samples were centrifuged at 20,000 g at 4° C. for 10 min, and then analysed by LC-MS/MS using a bioanalytical method previously developed in-house.
(§4) The stability of 1 μM of compound 4 was assessed in the following fractions: phosphate buffer, human plasma, rat plasma, human liver S9 fraction, rat liver S9 fraction and rat liver homogenates.
(§5) Reaction was initiated by adding 1 μM of test compound to the desired matrix (plasma or S9 fraction at 1 mg/mL), with a final volume of 250 μL. […] Samples were centrifuged at 20,000 g at 4° C. for 10 min, and then analysed by LC-MS/MS using bioanalytical methods previously developed in-house. […]

[3] = Subcutaneous pharmacokinetics in rats; type: in vivo, male Wistar rats; details: s.c. 3 mg/kg; for Cmax / Tmax / AUC(0-t): male, Wistar, sc, rat plasma, analyte prodrug; for AUC(0-t): read-out: AUClast of prodrug; for irritation at the injection site: DMSO:20% HPBCD (1:9), rat
Procedure: The pharmacokinetic properties of compounds 1 and 4 were assessed by subcutaneous injection to 4 male Wistar rats (3 mg/kg; DMSO:20% HPBCD (1:9)).
as §1

[4] = target: T1, erythrocyte S-COMT (Rattus norvegicus, UniProt P22734); experiment: Subcutaneous pharmacodynamics: erythrocyte S-COMT activity (adrenaline to metanephrine); type: in vivo, male Wistar rats; details: sc, s.c. 3 mg/kg
T1 construct: from tissue; host or cells: erythrocytes of male Wistar rats (haemolysate supernatant, 20 000 x g)
T1 sequence (P22734 1-221 isoform P22734-2): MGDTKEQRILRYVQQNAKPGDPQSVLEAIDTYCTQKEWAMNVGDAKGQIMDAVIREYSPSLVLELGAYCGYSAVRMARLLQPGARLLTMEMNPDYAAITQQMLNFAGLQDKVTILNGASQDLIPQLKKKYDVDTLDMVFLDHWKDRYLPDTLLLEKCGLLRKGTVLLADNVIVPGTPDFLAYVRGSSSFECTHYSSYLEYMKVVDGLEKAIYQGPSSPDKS
Procedure: The pharmacodynamic properties of compounds 1 and 4 compared to oral administered micronized crystalline opicapone were assessed by subcutaneous injection to 4 male Wistar rats (3 mg/kg; DMSO:20% HPBCD (1:9)) then measurement of erythrocyte S-COMT activity over time.
During the studies, blood was collected at different time points, from tail vein, spun at 1500×g in a refrigerated centrifuge (4° C.) for 15 min, and the plasma and erythrocytes obtained were stored at −80° C. until further analysis. The plasma samples collected were analysed for compound 1, compound 4 and opicapone exposure, as previously described
Erythrocyte S-COMT activity was evaluated by the ability to methylate adrenaline to metanephrine. Aliquots of erythrocytes were haemolyzed by addition of 4 volumes of ice-cold ultrapure water and homogenization in a bead mill homogenizer, using glass beads, followed by 10 minutes incubation on wet ice. After centrifugation (20 000×g, 20 minutes, 4° C.), the supernatant containing S-COMT was quantified for total protein using Bradford assay. Supernatants were diluted with water to 4 mg total protein per ml. 100 μL of these diluted supernatants were then pre-incubated in a 96-well plate for 20 min with 80 μL of phosphate buffer (10 mM, pH 7.8); thereafter, the reaction mixture was incubated for 10 min with adrenaline (10 mM; 20 μL) in the presence of a saturating concentration of S-adenosyl-L-methionine, the methyl donor (500 μM). The incubation medium also contained pargyline (100 μM), MgCl2, (100 μM) and EGTA (1 mM). The pre-incubation and incubation were carried out at 37° C., under conditions of light protection with continuous shaking and without oxygenation. At the end of the incubation period the plate was transferred to ice and the reaction was stopped by the addition of 15 μL of glacial acetic acid. 60 μL of each sample were then transferred to a new 96-well containing 400 μL of 0.1% formic acid, followed by plate centrifugation (2000×g, 5 minutes 4° C.). The supernatants were used for the quantification of metanephrine by LC-MS/MS.

[5] = In vitro stability in rat plasma; type: in vitro ADME; details: 1 μM; after 0.75 h
Procedure: as §2, §3, §4, §5

[6] = In vitro stability / conversion to opicapone in rat liver homogenates; type: in vitro ADME; details: 1 μM
Procedure: as §2, §3, §4
Reaction was initiated by adding 1 μM of test compound to the desired matrix (plasma or S9 fraction at 1 mg/mL), with a final volume of 250 μL. For plasma, at the time points of 0, 15, 30, 45 and 60 min of incubation, 50 μL of sample is taken and precipitated with 100 μL of internal standard working solution (ISWS) consisting of acetonitrile 1% formic acid containing the internal standard (opicapone ^13C6) at 1 μM. For S9 fraction, 50 μL of sample was taken and precipitated with 100 μL of ISWS after 60 min of incubation. For rat liver homogenates (0.2 g/mL of protein), reaction was initiated by adding of 1 μM of test compound with a final volume of 350 μL. At the following time points of 0, 5, 15, 30, 45, 60 min of incubation, 50 μL of sample is taken and precipitated with 200 μL ISWS. Samples were centrifuged at 20,000 g at 4° C. for 10 min, and then analysed by LC-MS/MS using bioanalytical methods previously developed in-house. Compound 4 was stable in all matrices with exception of rat liver homogenates, where the remaining compound was of approximately 31%, after 60 min of incubation. Solutions of the test compounds were prepared at 10 μM using 50 mM potassium phosphate buffer (KPB) at pH 7.4, by adding 1 μL of compound stock at 10 mM to 999 μL KPB 50 mM.

[7] = 2 h after dosing, read-out: maximal inhibition of COMT activity in erythrocytes
[8] = at least until 8 h post-dosing, read-out: inhibition of COMT maintained

Cc1c(Cl)c(C)[n+]([O-])c(Cl)c1-c1noc(-c2cc(OP(=O)(O)O)c(O)c([N+](=O)[O-])c2)n1 [Compound 1, 2,5-dichloro-3-(5-(4-hydroxy-3-nitro-5-(phosphonooxy)phenyl)-1,2,4-oxadiazol-3-yl)-4,6-dimethylpyridine 1-oxide]
Cmax [1]: 146 ng/mL
Tmax [1]: 30 min
AUC(0-t) [1]: 417 ng·h/mL
oral pharmacokinetic properties of the prodrug (comparison) ([1]; rat, FIG. 3a): improved pharmacokinetic properties compared to compound 4
opicapone pharmacokinetic profile after oral prodrug (comparison) ([1]; rat): comparable to opicapone itself
stability in human plasma [2]: stable
Cmax [3]: 7770 ng/mL
Tmax [3]: 60 min
AUC(0-t) [3]: 15500 ng·h/mL
irritation at the injection site [3]: low levels of irritation
inhibition at 3 mg/kg [4, 7]: 96%
inhibition at 3 mg/kg [4, 8]: > 80%
stability in rat plasma [5]: stable
conversion to opicapone in rat liver homogenates [6]: successfully converted to opicapone
% remaining of the parent compound ([6]; rat liver homogenate 0.4 g/mL, after 0.5 h): less than 25%

Cc1c(Cl)c(C)[n+]([O-])c(Cl)c1-c1noc(-c2cc(OCOP(=O)(O)O)c(O)c([N+](=O)[O-])c2)n1 [Compound 4, 2,5-dichloro-3-(5-(4-hydroxy-3-nitro-5-((phosphonooxy)methoxy)phenyl)-1,2,4-oxadiazol-3-yl)-4,6-dimethylpyridine 1-oxide]
Cmax [1]: 32.5 ng/mL
Tmax [1]: 30 min
AUC(0-t) [1]: 26.5 ng·h/mL
opicapone pharmacokinetic profile after oral prodrug (comparison) ([1]; rat): worse oral pharmacokinetic parameters
stability in human plasma [2]: stable
Cmax [3]: 3140 ng/mL
Tmax [3]: 30 min
AUC(0-t) [3]: 9660 ng·h/mL
irritation at the injection site [3]: low levels of irritation
inhibition at 3 mg/kg [4, 7]: 94%
inhibition at 3 mg/kg [4, 8]: > 80%
stability in rat plasma [5]: stable
conversion to opicapone in rat liver homogenates [6]: successfully converted to opicapone
remaining compound ([6]; rat liver homogenates 0.2 g/mL, after 60 min of incubation): approximately 31%
